Laboratory results published in ChEMBL document CHEMBL1212749, “In vitro activity of mirincamycin (U24729A) against Plasmodium falciparum isolates from Gabon” (Antimicrob Agents Chemother, 2010).
pIC50: −log10 of the molar value.

Legend:
Plasmodium falciparum [1] = assay: Antimalarial activity against Plasmodium falciparum clinical isolate after 6 days by HRP2 enzyme-linked immunosorbent assay; assay type: functional, organism-based; settings: 144 h
Plasmodium falciparum [2] = assay: Ratio of IC50 for Plasmodium falciparum 3D7A after 6 days to IC50 for Plasmodium falciparum 3D7A after 3 days by HRP2 enzyme-linked immunosorbent assay; assay type: functional

Row | SMILES | pIC50 (Plasmodium falciparum [1]) | Ratio IC50 (Plasmodium falciparum [2])
1 | CCC[C@@H]1C[C@@H](C(=O)N[C@@H]([C@H]2O[C@H](SC)[C@H](O)[C@@H](O)[C@H]2O)[C@H](C)Cl)N(C)C1 [CLINDAMYCIN] | 7.94 | –
2 | C[C@H]1c2cccc(O)c2C(=O)C2=C(O)[C@]3(O)C(=O)C(C(N)=O)=C(O)[C@@H](N(C)C)[C@@H]3[C@@H](O)[C@@H]21 [DOXYCYCLINE] | 6.14 | –
3 | CCCCCC1CN[C@@H](C(=O)N[C@H]([C@H]2O[C@H](SC)[C@H](O)[C@@H](O)[C@H]2O)[C@@H](C)Cl)C1 (stereo partly drawn) | – | > 10000
